Earlier results on one molecule are cited in patent US7449194B2, “Antimicrobial body covering articles” (priority 2002, dated 2008).

The conditions of the series: in water; 21° C.

For the molecule `[O][Cl+][O-]` [chlorine dioxide], the partition coefficient was 40.
